Literature values in patent publication US5837715A, “3-fluoro-4-aminopiperidine derivatives as 5-HT receptor agonists” (Merck Sharp & Dohme Ltd., priority 1997, dated 1998).

Experiments:
[1] = humans, therapeutic doses
[2] = system: human 5-HT1D.sbsb.α and 5-HT1D.sbsb.β receptor subtypes; conditions: cf. WO-A-91/17174, Table 1

discrimination between the human 5-HT1D.sbsb.α and 5-HT1D.sbsb.β receptor subtypes [2]: barely discriminates
SMILES: CNS(=O)(=O)Cc1ccc2[nH]cc(CCN(C)C)c2c1 [sumatriptan]
adverse cardiovascular events [1]: certain adverse cardiovascular events
